This note sets out measurements from patent US6750219B1, “Ω-amino-α-hydroxycarboxylic acid derivatives having integrin ανβ3 antagonistic activity” (Meiji Seika Kaisha, Ltd., priority 1999, dated 2004).

Data set [1] deals with T1, integrin αvβ3 (vitronectin receptor purified from the human placenta) (Homo sapiens, UniProt P05106+P06756).
T1 construct: a vitronectin receptor (protein content: 118 mg/ml) purified from the human placenta; from tissue; host or cells: human placenta
Description: αvβ3 binding assay (vitronectin-vitronectin receptor binding assay). Conditions: vitronectin binding to vitronectin receptor purified from human placenta; read-out: integrin αvβ3 antagonistic activity (IC50). The method, then:
Pharmacological Test Example 1: αvβ3 Binding Assay
Integrin αvβ3 antagonistic activity was first measured in a vitronectin-vitronectin receptor binding assay system in accordance with the method of Kouns et al. (W. C. Kouns, D. Kirchhofer, P. Hadvary, A. Edenhofer, T. Weller, G. Pfenninger, H. R. Baumgartner, L. K. Jennings and B. Steiner, Blood, 80, 2539-2547 (1992)). […] A 0.1 M citric acid buffer (pH 4.3) containing 0.05% NaN3 was added in an amount of […] to stop the reaction, followed by the measurement of the absorbance at 415 nm with a microplate reader (MTP 32, Corona Electric) (reference: 675 nm). The total binding was defined as the absorbance after a reaction using 50 ml of TBS-Tween instead of the test compound, and the non-specific binding (100% inhibition) was defined as the absorbance after a reaction using 50 ml of TBS-Tween containing 2×10^−3 M RGDS. The inhibition was calculated by the following equation: [formula]
IC50 was determined from a primary regression line of the logarithm of each concentration of the test compound and the logarithm of (100-inhibition)/inhibition.

A further data set is described as follows: solubility in water. The settings on record: dihydrochloride; data omitted. The format is physicochemical.
The target of another data set is GP IIb/IIIa (Homo sapiens, UniProt P05106+P08514). Description: GP IIb/IIIa antagonistic activity (Pharmacological Test 2 in WO 94/21599). In kind it is binding. The method, then: Pharmacological Test Example 2: GP IIb/IIIa Antagonistic Activity and Human Platelet Aggregation Inhibitory Activity
GP IIb/IIIa antagonistic activity was measured for the compounds according to the present invention. The measurement of the GP IIb/IIIa antagonistic activity was carried out according to the method described in Pharmacological Test 2 in WO 94/21599.

Chain of GP IIb/IIIa (P08514 32-887 limits assumed): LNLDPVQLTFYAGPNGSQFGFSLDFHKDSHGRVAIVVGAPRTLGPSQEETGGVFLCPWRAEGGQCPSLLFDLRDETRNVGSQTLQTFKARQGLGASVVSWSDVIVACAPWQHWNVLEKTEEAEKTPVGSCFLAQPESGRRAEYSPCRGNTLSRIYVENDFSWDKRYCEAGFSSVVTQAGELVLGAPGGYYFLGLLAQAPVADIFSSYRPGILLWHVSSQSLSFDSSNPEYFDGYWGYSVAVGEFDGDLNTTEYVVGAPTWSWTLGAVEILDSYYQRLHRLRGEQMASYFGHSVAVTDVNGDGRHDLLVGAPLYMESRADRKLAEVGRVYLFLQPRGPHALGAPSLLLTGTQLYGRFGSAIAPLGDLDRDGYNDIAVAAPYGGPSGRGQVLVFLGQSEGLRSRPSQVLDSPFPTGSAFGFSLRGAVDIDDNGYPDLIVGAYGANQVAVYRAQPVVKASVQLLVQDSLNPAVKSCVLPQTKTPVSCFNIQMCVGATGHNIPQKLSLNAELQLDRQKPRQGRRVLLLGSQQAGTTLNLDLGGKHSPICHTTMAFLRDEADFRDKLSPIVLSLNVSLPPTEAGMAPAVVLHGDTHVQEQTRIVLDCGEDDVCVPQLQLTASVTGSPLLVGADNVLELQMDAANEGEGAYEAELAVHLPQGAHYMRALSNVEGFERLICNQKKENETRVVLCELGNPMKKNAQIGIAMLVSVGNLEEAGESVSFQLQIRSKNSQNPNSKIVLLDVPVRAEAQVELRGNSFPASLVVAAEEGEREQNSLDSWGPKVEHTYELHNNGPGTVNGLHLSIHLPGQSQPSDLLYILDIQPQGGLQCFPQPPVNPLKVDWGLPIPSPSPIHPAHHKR
Chain of GP IIb/IIIa (P08514 891-1039 limits assumed): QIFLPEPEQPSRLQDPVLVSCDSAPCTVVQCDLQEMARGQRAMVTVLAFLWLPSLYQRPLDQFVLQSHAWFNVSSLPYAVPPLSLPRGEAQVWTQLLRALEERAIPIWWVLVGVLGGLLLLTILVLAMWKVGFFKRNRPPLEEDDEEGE
Chain of GP IIb/IIIa (P05106 27-788): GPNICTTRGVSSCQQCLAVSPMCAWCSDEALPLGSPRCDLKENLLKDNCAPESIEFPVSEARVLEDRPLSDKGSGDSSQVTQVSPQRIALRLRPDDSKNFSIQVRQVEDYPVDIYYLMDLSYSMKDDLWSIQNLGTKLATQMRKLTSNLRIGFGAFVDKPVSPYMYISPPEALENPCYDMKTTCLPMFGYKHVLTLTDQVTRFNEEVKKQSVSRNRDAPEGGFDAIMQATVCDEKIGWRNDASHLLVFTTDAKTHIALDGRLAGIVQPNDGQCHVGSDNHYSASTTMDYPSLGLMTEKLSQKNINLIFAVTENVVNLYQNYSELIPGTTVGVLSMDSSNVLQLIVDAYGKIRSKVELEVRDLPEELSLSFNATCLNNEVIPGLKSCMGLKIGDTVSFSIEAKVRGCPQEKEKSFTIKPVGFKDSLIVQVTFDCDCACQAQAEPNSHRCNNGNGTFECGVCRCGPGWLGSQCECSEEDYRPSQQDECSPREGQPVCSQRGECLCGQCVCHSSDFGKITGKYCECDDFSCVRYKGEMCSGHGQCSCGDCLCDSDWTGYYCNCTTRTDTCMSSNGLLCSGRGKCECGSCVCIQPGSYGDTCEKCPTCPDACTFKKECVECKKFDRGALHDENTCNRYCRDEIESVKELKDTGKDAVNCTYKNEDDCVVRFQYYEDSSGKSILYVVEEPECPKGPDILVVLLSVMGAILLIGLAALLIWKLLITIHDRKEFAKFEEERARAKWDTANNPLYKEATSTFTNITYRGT
T1 sequence (P06756 31-889 limits assumed): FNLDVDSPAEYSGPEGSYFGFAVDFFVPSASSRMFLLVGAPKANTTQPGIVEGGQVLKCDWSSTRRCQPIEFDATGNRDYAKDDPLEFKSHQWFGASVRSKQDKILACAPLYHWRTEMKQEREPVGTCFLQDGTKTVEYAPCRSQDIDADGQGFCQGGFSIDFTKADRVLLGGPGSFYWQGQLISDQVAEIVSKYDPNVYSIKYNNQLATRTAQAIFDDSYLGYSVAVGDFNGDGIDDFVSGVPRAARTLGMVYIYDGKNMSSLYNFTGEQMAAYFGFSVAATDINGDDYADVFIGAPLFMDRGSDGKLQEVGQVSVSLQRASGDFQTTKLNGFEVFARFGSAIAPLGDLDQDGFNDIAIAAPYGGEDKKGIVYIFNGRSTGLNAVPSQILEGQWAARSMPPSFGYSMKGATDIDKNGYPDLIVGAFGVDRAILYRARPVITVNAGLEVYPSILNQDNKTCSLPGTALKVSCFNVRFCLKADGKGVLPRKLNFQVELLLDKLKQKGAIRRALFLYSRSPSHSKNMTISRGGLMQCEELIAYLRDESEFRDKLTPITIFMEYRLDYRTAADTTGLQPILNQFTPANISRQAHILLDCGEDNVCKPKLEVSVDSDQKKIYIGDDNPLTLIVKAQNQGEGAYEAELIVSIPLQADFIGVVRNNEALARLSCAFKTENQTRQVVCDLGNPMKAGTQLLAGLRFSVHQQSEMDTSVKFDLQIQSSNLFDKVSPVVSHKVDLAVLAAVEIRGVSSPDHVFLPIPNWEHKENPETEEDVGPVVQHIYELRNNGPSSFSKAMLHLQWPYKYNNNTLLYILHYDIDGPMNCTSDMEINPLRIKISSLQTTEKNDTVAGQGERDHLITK
T1 sequence (P06756 891-1048 limits assumed): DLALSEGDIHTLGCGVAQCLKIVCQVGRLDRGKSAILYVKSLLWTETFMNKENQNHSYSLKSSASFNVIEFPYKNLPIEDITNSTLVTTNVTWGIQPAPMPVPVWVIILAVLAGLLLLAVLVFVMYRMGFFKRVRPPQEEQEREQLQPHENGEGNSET
T1 sequence (P05106 27-788): as the sequence (P05106 27-788) above

As for `O=C(NC[C@H](O)C(=O)O)c1ccc(N2CCC(NC3=NCCCN3)CC2)cc1` [Example 6, (2S)-Hydroxy-3-[4-{4-(1,4,5,6-tetrahydropyrimidin-2-ylamino)piperidin-1-yl}benzoylamino]-propionic acid], the IC50 in data set [1] was found to be 23 nM; against GP IIb/IIIa it was 4.8 nM. Also, in “solubility in water”, the solubility in water result was “soluble in water”.
The like results for `O=C(NC[C@H](O)C(=O)O)c1ccc(N2CCC(NC3=NCCCN3)CC2)c(F)c1` [Example 14, 3-[3-Fluoro-4-{4-(1,4,5,6-tetrahydropyrimidin-2-ylamino)piperidin-1-yl}benzoylamino]-(2S)-hydroxypropionic acid] were, in that order, 2.8 nM, 12 nM and “soluble in water”.
